pIC50: −log10 of the molar value.
Key:
PI4KIIIB = PI4KIIIB (Bos taurus (Bovine), UniProt O02810); assay: PI4KIIIβ kinase assay (immunoprecipitated HA-tagged enzyme, [γ-32P]-ATP); assay type: biochemical; details: kinase activity
Cell toxicity (CC50) = assay type: cell-based; details: human, HuH-7 cells
PI3K p110g = PI3K p110g (Homo sapiens (Human), UniProt P48736); assay: PI3K p110g kinase assay; assay type: biochemical; details: kinase activity
PI4KIIIA = PI4KIIIA (Homo sapiens (Human), UniProt P42356); assay: PI4KIIIα kinase assay (immunoprecipitated HA-tagged enzyme, [γ-32P]-ATP); assay type: biochemical; details: kinase activity
PI4KIIIA, sequence (P42356 whole entry): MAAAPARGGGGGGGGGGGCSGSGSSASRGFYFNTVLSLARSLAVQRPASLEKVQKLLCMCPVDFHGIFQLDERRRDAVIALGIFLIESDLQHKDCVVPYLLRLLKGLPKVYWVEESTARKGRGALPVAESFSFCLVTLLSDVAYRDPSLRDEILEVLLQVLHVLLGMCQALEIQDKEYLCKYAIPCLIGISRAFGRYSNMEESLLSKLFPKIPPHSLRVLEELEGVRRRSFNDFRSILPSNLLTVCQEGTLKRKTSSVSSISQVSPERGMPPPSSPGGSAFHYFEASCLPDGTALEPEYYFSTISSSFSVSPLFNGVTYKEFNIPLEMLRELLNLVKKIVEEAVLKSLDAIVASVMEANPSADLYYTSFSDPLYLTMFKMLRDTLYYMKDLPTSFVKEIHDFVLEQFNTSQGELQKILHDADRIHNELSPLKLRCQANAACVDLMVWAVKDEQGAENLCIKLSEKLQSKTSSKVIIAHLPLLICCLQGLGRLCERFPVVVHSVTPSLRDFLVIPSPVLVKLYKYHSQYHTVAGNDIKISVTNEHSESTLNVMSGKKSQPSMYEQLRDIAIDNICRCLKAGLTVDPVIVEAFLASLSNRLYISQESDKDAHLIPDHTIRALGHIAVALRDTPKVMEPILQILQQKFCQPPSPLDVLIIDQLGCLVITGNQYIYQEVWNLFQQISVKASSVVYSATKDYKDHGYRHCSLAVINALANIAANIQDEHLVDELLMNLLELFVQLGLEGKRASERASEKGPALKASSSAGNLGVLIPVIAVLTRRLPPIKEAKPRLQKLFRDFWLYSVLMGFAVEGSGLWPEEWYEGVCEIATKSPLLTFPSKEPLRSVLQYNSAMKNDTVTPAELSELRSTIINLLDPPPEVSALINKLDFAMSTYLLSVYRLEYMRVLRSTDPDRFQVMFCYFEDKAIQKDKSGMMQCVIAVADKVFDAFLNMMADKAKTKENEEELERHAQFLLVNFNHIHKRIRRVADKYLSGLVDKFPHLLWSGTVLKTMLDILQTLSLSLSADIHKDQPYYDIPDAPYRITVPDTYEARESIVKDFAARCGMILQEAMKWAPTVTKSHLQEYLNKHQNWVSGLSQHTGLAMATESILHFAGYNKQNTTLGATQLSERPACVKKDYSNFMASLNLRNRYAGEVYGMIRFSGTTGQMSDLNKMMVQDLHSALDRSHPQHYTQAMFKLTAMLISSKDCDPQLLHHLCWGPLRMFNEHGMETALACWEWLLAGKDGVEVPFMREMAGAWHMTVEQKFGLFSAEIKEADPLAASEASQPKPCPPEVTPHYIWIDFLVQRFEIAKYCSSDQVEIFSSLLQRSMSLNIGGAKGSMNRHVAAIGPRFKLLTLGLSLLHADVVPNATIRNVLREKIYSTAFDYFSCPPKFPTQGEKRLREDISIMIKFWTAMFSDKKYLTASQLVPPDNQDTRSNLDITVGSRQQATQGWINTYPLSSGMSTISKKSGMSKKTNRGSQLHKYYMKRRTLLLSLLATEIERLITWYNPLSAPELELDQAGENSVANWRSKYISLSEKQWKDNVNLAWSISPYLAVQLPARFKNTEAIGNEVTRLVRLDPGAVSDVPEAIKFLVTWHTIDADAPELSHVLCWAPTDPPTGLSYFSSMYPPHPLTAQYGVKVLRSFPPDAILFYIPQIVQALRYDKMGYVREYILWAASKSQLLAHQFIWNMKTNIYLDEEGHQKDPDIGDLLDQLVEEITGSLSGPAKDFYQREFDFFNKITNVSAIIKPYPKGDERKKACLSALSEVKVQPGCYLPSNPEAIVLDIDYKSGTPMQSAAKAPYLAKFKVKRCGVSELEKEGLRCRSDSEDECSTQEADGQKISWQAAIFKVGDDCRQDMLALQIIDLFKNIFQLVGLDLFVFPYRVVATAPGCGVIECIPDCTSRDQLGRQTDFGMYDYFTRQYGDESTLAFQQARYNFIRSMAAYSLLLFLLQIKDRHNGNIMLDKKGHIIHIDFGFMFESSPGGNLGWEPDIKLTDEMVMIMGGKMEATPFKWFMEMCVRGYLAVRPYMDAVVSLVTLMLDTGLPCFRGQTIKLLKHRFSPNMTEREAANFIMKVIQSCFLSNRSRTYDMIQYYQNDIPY

PI3KC2G = PI3KC2G (Homo sapiens (Human), UniProt O75747); assay: PI3KC2G kinase assay; assay type: biochemical; details: kinase activity
PI3KC2G, sequence (O75747 whole entry): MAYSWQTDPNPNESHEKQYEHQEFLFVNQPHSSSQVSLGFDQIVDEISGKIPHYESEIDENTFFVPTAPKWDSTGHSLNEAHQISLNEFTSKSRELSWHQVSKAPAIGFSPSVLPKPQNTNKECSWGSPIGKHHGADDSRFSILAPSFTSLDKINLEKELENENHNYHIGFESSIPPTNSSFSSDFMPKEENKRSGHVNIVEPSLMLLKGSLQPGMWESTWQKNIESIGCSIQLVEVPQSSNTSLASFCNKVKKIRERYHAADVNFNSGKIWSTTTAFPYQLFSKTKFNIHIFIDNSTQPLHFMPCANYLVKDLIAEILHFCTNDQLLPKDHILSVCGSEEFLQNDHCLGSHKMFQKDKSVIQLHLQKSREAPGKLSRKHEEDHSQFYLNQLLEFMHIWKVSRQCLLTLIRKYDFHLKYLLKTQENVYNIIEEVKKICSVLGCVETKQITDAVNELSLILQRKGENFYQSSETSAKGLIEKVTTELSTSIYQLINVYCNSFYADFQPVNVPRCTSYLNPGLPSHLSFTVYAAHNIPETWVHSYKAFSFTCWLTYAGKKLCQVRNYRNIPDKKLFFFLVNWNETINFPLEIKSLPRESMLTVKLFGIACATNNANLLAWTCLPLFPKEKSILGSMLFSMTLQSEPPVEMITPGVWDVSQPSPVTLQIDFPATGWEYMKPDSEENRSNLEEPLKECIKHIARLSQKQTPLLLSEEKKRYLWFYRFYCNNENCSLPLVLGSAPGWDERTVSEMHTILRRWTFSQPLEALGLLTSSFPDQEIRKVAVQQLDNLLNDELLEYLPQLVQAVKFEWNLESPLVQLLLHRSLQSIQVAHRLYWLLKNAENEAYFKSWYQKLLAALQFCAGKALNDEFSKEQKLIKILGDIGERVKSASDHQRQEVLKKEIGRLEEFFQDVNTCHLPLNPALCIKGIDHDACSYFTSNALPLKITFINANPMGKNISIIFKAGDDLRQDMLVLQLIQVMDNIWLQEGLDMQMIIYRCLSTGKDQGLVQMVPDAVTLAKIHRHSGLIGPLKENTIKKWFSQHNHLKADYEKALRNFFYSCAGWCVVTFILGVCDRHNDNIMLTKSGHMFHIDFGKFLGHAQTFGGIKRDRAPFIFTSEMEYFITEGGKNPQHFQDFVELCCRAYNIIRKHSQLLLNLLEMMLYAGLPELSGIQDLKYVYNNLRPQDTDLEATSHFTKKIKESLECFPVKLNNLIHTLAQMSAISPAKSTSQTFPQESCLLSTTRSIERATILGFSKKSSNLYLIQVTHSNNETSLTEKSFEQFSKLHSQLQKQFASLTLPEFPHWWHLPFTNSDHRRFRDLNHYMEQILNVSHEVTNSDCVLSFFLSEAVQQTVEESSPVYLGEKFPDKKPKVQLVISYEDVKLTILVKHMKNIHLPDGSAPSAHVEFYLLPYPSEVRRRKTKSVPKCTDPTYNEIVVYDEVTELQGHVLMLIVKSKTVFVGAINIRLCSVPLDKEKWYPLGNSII
Procedure: PI-kinase assay: Compounds are tested in C.1.1. PI kinase assays as described by Shokat et al., “A membrane capture assay for lipid kinase activity.” Nat. Protoc.
Selected compounds of Table 1 and 2 were prepared and tested for inhibition activity in a variety of kinase assays.

PI3K p110g, sequence (P48736 whole entry): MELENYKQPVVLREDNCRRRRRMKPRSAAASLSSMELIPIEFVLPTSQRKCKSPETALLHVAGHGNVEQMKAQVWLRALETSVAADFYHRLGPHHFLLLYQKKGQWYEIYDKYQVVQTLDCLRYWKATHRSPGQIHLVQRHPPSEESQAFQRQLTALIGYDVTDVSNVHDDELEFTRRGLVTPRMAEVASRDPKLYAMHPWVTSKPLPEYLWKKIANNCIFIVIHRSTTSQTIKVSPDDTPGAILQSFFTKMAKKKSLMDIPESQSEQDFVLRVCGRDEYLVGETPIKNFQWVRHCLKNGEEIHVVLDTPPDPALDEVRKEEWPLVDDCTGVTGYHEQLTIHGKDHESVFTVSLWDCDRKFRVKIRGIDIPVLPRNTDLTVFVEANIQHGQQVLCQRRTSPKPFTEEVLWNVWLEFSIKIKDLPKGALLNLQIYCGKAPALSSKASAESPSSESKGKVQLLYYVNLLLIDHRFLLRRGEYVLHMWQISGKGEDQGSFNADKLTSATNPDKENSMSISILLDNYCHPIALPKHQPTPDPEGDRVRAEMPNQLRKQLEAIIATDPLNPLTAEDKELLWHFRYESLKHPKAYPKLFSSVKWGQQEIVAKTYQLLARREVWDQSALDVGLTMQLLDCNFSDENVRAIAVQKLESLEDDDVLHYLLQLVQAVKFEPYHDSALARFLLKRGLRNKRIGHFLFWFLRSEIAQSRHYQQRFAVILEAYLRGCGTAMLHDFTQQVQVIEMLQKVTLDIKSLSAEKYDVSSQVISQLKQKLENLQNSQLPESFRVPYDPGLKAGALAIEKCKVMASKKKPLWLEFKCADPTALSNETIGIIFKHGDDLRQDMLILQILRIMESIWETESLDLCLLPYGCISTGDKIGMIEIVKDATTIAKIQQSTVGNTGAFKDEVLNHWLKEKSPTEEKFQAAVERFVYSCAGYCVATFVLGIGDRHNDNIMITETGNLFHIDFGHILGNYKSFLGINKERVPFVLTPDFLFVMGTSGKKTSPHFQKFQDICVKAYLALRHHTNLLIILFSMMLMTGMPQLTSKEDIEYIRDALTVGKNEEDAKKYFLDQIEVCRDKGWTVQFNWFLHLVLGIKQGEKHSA

Row | Structure (SMILES) | pIC50 (PI4KIIIB) | other results
1 | COc1ccc(-c2sc(NC(=O)C3CCCC3)nc2C)cc1S(=O)(=O)N[C@H]1CC[C@H](O)CC1 [Compound S-9] | > 7.00 | –
2 | COc1ccc(-c2sc(NCC3CCCCC3)nc2C)cc1S(=O)(=O)Nc1ccccc1F [Compound S-29] | – | CC50 (Cell toxicity (CC50)): > 10000 nM
3 | COc1ccc(-c2sc(NC(=O)C3CCCC3)nc2C)cc1S(=O)(=O)Nc1ccc(CO)cc1 [Compound S-41] | > 7.00 | –
4 | COc1ccc(-c2sc(NC(=O)Cc3ccccc3)nc2C)cc1S(=O)(=O)Nc1ccc(O)cc1 [Compound S-49] | > 7.00 | –
5 | COc1ccc(NS(=O)(=O)c2cc(-c3sc(NC(=O)CC4CCCCC4)nc3C)ccc2OC)c(C)c1 [Compound S-85] | – | CC50 (Cell toxicity (CC50)): > 10000 nM
6 | COc1ccc(NS(=O)(=O)c2cc(-c3sc(NC4CCCCCC4)nc3C)ccc2OC)c(C)c1 [Compound S-89] | – | CC50 (Cell toxicity (CC50)): > 10000 nM
7 | COc1ccc(-c2sc(NC(=O)CC3CCCC3)nc2C)cc1S(=O)(=O)Nc1ccc(C)nc1 [Compound S-100] | 6.00 to 7.00 | pIC50 (PI3K p110g): < 5.00; pIC50 (PI4KIIIA): < 5.00
8 | COc1ccc(-c2sc(NC3CCCCC3)nc2C)cc1S(=O)(=O)Nc1ccc(O)cc1C [Compound S-106] | – | CC50 (Cell toxicity (CC50)): > 10000 nM
9 | COc1ccc(-c2sc(NCC3CCCCC3)nc2C)cc1S(=O)(=O)NC1CCNCC1 [Compound S-123] | > 7.00 | –
10 | COc1ccc(-c2sc(NCC3CCCCC3)nc2C)cc1S(=O)(=O)NC1CC1 [Compound S-127] | 6.00 to 7.00 | pIC50 (PI3KC2G): < 5.00; pIC50 (PI3K p110g): < 5.00; pIC50 (PI4KIIIA): < 5.00
11 | COc1ccc(-c2sc(NCC3CCCCC3)nc2C)cc1S(=O)(=O)NCC1CCCCC1 [Compound S-128] | 6.00 to 7.00 | pIC50 (PI3KC2G): < 5.00; pIC50 (PI3K p110g): < 5.00; pIC50 (PI4KIIIA): < 5.00
12 | COc1ccc(-c2sc(NC3CCCCC3)nc2C)cc1S(=O)(=O)NC1CCCC1 [Compound S-129] | 6.00 to 7.00 | pIC50 (PI3KC2G): < 5.00; pIC50 (PI3K p110g): < 5.00; pIC50 (PI4KIIIA): < 5.00
13 | COc1ccc(-c2sc(NC3CCCCC3)nc2C)cc1S(=O)(=O)NC1CCCCCC1 [Compound S-131] | 6.00 to 7.00 | pIC50 (PI3KC2G): < 5.00; pIC50 (PI4KIIIA): < 5.00
14 | COc1ccc(-c2sc(NCC3CCCCC3)nc2C)cc1S(=O)(=O)NC1CCN(C2CCCC2)CC1 [Compound S-133] | > 7.00 | –
15 | COc1ccc(-c2sc(NCC3CCCCC3)nc2C)cc1S(=O)(=O)NC1CCN(C(C)C)CC1 [Compound S-134] | > 7.00 | –
16 | COc1ccc(-c2sc(NCC3CCCCC3)nc2C)cc1S(=O)(=O)NC1CCN(C2CC2)CC1 [Compound S-135] | > 7.00 | –

Row | Structure (SMILES) | pIC50 (PI4KIIIB) | other results
17 | COc1ccc(-c2sc(NCC3CCCCC3)nc2C)cc1S(=O)(=O)NC1CCN(C2CCCCC2)CC1 [Compound S-136] | > 7.00 | –
18 | COc1ccc(-c2sc(NC(=O)[C@@H](C)C3CCCCC3)nc2C)cc1S(=O)(=O)Nc1ccc(O)cc1 [Compound S-138] | – | CC50 (Cell toxicity (CC50)): > 10000 nM
19 | COc1ccc(-c2sc(N[C@H](C)C3CCCCC3)nc2C)cc1S(=O)(=O)NC1CCCNC1 (some centres unmarked) [Compound S-148] | – | pIC50 (PI3K p110g): < 5.00
20 | COc1ccc(-c2sc(NC(=O)CC3CCCC3)nc2C)cc1S(=O)(=O)N[C@H]1CC[C@H](O)CC1 [Compound S-151] | > 7.00 | –
21 | COc1ccc(-c2sc(NC(=O)CC3CCCC3)nc2C)cc1S(=O)(=O)NCCCCO [Compound S-152] | > 7.00 | –
22 | COc1ccc(-c2sc(NC(=O)CC3CCCC3)nc2C)cc1S(=O)(=O)N1CC[C@@H](O)C1 [Compound S-153] | > 7.00 | –
23 | COc1ccc(-c2sc(NC3CCCCC3)nc2C)cc1S(=O)(=O)N[C@H]1CC[C@H](O)CC1 [Compound S-166] | > 7.00 | –
24 | COc1ccc(-c2sc(NC3CCCCC3)nc2C)cc1S(=O)(=O)N[C@H]1CC[C@@H](O)CC1 [Compound S-167] | > 7.00 | –
25 | COc1ccc(-c2sc(N[C@@H](C)C3CCCCC3)nc2C)cc1S(=O)(=O)N[C@H]1CC[C@H](O)CC1 [Compound S-183] | > 7.00 | –
26 | Cc1ccc(-c2sc(NC(=O)CC3CCCC3)nc2C)cc1S(=O)(=O)NC1CCNCC1 [Compound S-188] | > 7.00 | –
27 | COc1ccc(-c2sc(N[C@H](C)C3CCCCC3)nc2C)cc1S(=O)(=O)N[C@@H]1CCNC1 [Compound S-197] | > 7.00 | –
28 | COc1ccc(-c2sc(N[C@H](C)C3CCCCC3)nc2C)cc1S(=O)(=O)N[C@H]1CC[C@@H](O)CC1 [Compound S-198] | 6.00 to 7.00 | –
29 | COc1ccc(-c2sc(N[C@H](C)C3CCCCC3)nc2C)cc1S(=O)(=O)N[C@H]1CCNC1 [Compound S-201] | > 7.00 | –
30 | COc1ccc(-c2sc(NCCC3CCCCC3)nc2C)cc1S(=O)(=O)NC1CCNCC1 [Compound S-202] | > 7.00 | –
31 | COc1ccc(-c2sc(N[C@@H](C)C3CCCCC3)nc2C)cc1S(=O)(=O)N[C@H]1CC[C@@H](O)CC1 [Compound S-206] | 5.00 to 6.00 | –

Source: patent US11091472B2, “PI-kinase inhibitors with anti-infective activity” (The Board of Trustees of the Leland Stanford Junior …, priority 2016, dated 2021)
